The target of series [1] is T1, C-X-C chemokine receptor type 3 (Homo sapiens, UniProt P49682).
T1 sequence (P49682 whole entry): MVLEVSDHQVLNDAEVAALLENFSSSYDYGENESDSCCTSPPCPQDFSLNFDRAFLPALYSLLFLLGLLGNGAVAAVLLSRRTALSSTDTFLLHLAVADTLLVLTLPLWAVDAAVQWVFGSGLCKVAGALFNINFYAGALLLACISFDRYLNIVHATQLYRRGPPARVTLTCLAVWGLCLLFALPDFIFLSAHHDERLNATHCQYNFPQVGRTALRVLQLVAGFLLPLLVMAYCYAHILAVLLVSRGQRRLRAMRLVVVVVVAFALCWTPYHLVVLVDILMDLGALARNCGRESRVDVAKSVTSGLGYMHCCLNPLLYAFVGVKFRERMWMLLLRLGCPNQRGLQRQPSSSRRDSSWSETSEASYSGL
In words: Antagonist activity at CXCR3 (unknown origin) in human T cells in venous blood assessed as receptor internalization incubated for 30 mins in presence of CXCL10 by flow cytometric analysis. The series is classed as cell-based, T cell. Background: A flow cytometer gives signals particle by particle.

The target of series [2] is Voltage-gated inwardly rectifying potassium channel KCNH2 (Homo sapiens, UniProt Q12809). In words: Inhibition of human ERG stably expressed in CHO cells at -80 mV holding voltage by automated QPatch electrophysiological assay. Type of series: toxicity, cell-based. A general note: In patch-clamp work, channel activity is measured electrically.
Series [3] can be described thus: Metabolic stability in human liver microsomes assessed as intrinsic clearance at 1 uM and measured upto 15 mins in presence of NADPH regenerating system by LC-MS/MS analysis. Type of series: ADME, Microsome. The note with it: read-out: CLH.
Series [4] can be described thus: Lipophilicity, log D of compound. The series is classed as physicochemical. The settings on record: octanol/water.
Another series addresses CYP2D6 (Homo sapiens, UniProt P10635). The series can be described thus: […] recombinant human CYP2D6 mediated drug metabolism in human liver microsomes assessed as intrinsic clearance at 1 uM incubated for 45 mins in presence of NADPH regenerating system by LC-MS/MS analysis. Type of series: ADME, Microsome. The settings on record: recombinant human CYP2D6, read-out: CLH.

The next series concerns the target CYP3A4 (Homo sapiens, UniProt P08684). The series can be described thus: […] recombinant human CYP3A4 mediated drug metabolism in human liver microsomes assessed as intrinsic clearance at 1 uM incubated for 45 mins in presence of NADPH regenerating system by LC-MS/MS analysis. Type of series: ADME, Microsome. The settings on record: read-out: CLH. A general note: Liver microsomes are a subcellular fraction often used to study metabolism.

Series [5] is described as follows: Clearance in Wistar rat at 2 mg/kg,po. Type of series: ADME, organism-based. The note with it: in vivo.
Series [6] can be described thus: Oral bioavailability in Beagle dog at 2 mg/kg. Type of series: ADME, organism-based, Canis lupus familiaris. The note with it: in vivo.
Series [7] in a line: Oral bioavailability in Wistar rat at 2 mg/kg. The settings on record: in vivo. The series is classed as ADME, organism-based.

Chain of CYP2D6 (P10635 whole entry): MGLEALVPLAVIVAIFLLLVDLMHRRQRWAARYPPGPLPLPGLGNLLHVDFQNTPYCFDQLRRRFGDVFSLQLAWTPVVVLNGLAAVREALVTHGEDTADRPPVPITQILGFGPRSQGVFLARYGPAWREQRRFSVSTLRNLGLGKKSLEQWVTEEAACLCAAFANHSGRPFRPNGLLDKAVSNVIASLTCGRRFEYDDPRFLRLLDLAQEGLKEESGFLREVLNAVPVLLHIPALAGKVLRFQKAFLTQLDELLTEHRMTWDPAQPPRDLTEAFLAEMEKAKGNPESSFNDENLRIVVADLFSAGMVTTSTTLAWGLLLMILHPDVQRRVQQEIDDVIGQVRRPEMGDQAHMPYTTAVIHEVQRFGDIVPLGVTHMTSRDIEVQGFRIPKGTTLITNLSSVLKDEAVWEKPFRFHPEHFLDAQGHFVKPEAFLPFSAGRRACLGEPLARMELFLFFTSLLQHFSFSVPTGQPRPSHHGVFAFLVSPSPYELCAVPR
Chain of CYP3A4 (P08684 whole entry): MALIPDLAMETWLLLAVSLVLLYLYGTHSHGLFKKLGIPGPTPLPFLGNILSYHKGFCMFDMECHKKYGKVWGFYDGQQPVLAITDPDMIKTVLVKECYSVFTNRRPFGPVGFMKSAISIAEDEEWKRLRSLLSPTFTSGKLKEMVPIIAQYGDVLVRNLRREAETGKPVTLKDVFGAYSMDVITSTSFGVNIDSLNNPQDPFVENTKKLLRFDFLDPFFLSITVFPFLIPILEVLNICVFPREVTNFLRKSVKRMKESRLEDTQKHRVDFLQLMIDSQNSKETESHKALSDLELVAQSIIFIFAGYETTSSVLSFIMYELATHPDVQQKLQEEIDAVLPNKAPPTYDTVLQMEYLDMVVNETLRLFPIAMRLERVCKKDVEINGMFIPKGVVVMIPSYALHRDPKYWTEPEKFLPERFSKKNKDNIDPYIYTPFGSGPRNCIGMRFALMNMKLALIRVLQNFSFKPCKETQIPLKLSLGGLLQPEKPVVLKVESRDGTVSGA
Chain of Voltage-gated inwardly rectifying potassium channel KCNH2 (Q12809 whole entry): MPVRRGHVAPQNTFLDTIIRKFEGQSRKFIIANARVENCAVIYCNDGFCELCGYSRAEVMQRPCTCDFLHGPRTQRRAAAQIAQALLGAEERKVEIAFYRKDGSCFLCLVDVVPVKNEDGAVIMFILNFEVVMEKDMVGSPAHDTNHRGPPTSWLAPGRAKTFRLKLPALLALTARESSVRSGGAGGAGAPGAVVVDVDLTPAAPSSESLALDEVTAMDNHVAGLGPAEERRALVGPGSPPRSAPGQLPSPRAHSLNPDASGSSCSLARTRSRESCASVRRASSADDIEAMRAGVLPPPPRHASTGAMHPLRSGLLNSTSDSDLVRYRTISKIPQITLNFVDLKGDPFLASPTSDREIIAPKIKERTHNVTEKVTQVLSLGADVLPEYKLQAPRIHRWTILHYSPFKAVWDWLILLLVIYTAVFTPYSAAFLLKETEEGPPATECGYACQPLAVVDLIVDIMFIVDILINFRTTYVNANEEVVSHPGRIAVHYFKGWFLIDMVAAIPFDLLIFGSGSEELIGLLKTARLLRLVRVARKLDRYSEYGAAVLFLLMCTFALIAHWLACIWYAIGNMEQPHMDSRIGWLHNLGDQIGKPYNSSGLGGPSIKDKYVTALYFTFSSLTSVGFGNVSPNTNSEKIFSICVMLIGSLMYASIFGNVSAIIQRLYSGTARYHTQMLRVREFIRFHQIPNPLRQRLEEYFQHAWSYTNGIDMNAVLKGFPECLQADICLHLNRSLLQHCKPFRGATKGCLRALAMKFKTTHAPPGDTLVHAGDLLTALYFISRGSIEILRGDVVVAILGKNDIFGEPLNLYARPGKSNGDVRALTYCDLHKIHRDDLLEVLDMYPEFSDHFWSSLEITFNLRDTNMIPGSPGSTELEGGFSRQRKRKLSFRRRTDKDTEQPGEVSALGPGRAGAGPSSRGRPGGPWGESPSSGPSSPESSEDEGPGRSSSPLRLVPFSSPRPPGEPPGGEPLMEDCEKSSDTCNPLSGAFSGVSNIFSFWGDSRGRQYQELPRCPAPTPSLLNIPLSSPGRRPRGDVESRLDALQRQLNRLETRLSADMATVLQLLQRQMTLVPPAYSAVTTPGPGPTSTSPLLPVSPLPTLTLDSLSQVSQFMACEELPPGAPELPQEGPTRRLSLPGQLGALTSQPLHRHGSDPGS

Take `CC(O)c1ncn(CC(=O)N2CCN(c3sc(C(F)(F)F)nc3-c3cnc(C(F)(F)F)nc3)C[C@H]2C)n1` (stereo not given in full): the IC50 (commonly the point on the concentration scale where inhibition reaches its midpoint) in series [1] is 356 nM; in [2] it was above 60000 nM.

Turning to `CCc1nc(C)nn1CC(=O)N1CCN(c2sc(C(F)(F)F)nc2-c2cnc(C(F)(F)F)nc2)C[C@H]1C`, the IC50 in [1] was determined as 680 nM; in series [2], 12000 nM.

In the case of `CCc1ccn(CC(=O)N2CCN(c3sc(C(F)(F)F)nc3-c3cnc(C(F)(F)F)nc3)C[C@H]2CCO)n1`, the microsomal CLint at 1 µM in series [3] is 112 µL/min/mg. The IC50 in series [1] came out at 24.9 nM; in series [2] it was 2900 nM.

For the molecule `CC(C)c1ncn(CC(=O)N2CCN(c3sc(C(F)(F)F)nc3-c3cnc(C(F)(F)F)nc3)C[C@H]2CCO)n1`, the microsomal CLint at 1 µM in series [3] stood at 22 µL/min/mg. Moreover, the half-inhibitory concentration (IC50) stood at 63 nM in series [1] and 5800 nM in [2].

With `Cc1ncn(CC(=O)N2CCN(c3sc(C(F)(F)F)nc3-c3cnc(C(F)(F)F)nc3)C[C@H]2CO)n1`, the microsomal CLint at 1 µM in [3] was below 10 µL/min/mg. Further, the IC50 was 167 nM in series [1] and above 60000 nM in series [2].

Turning to `C[C@@H]1CN(c2sc(C(F)(F)F)nc2-c2cnc(C(F)(F)F)nc2)CCN1C(=O)Cn1cnc(C(N)=O)n1`, the half-maximal inhibitory concentration (IC50) in series [1] was 2150 nM; in [2] it was above 60000 nM.

On to `CC(C)c1ncn(CC(=O)N2CCN(c3sc(C(F)(F)F)nc3-c3cnc(C(F)(F)F)nc3)C[C@@H]2CO)n1`, for which the microsomal CLint at 1 µM in series [3] came out at 27 µL/min/mg. In addition, the IC50 was 161 nM in series [1] and 17000 nM in [2].

Turning to `Cc1ncn(CC(=O)N2CCN(c3sc(C(F)(F)F)nc3-c3cnc(C(F)(F)F)nc3)C[C@H]2C)n1`, in series [4], the logD (usually lipophilicity at a set pH, counting ionised and neutral species) was found to be 2.7. Further, the concentration for half-maximal inhibition (IC50) was 144 nM in series [1] and 17000 nM in series [2].

Take `C[C@@H]1CN(c2sc(C(F)(F)F)nc2-c2cnc(C(F)(F)F)nc2)CCN1C(=O)Cn1cnc(C(F)(F)F)n1`: the figures for the IC50 in series [1] and in series [2] were 191 nM and 3900 nM, respectively.

As to `O=C(Cn1cnc(C2CC2)n1)N1CCN(c2sc(C(F)(F)F)nc2-c2cnc(C(F)(F)F)nc2)C[C@H]1CCO`, in series [3], the microsomal CLint at 1 µM came to 12 µL/min/mg. The values for the IC50 in series [1] and in series [2] were 59.1 nM and 7300 nM, respectively.

With `O=C(Cn1cnc(C2CC2)n1)N1CCN(c2sc(C(F)(F)F)nc2-c2cnc(C(F)(F)F)nc2)C[C@H]1CO`, the microsomal CLint at 1 µM in series [3] is below 10 µL/min/mg. Further, the 50% inhibitory concentration (IC50) came out at 140 nM in series [1] and 31000 nM in series [2].

On to `Cc1ccn(CC(=O)N2CCN(c3sc(C(F)(F)F)nc3-c3cnc(C(F)(F)F)nc3)C[C@H]2C)n1`, for which, in series [4], the pH-dependent lipophilicity (logD) was found to be 3.4. The 50% inhibitory concentration (IC50) was 56.4 nM in series [1] and 5100 nM in series [2].

Consider `CC(C)c1ncn(CC(=O)N2CCN(c3sc(C(F)(F)F)nc3-c3cnc(C(F)(F)F)nc3)C[C@@H]2CCO)n1`, for which the values for the microsomal CLint at 1 µM (at CYP2D6; on CYP3A4; in series [3]) were 0.28 µL/min/mg, 1.9 µL/min/mg and 22 µL/min/mg, respectively. Besides, the IC50 amounted to 165 nM in series [1] and 19000 nM in series [2].

As to `CCc1ncn(CC(=O)N2CCN(c3sc(C(F)(F)F)nc3-c3cnc(C(F)(F)F)nc3)C[C@@H]2CO)n1`, the microsomal CLint at 1 µM at CYP2D6 was 0.13 µL/min/mg; on CYP3A4, 0.27 µL/min/mg; in series [3], below 10 µL/min/mg. In addition, the 50% inhibitory concentration (IC50) was 82 nM in series [1] and above 60000 nM in series [2].

`CC(C)c1ncn(CC(=O)N2CCN(c3sc(C(F)(F)F)nc3-c3cnc(C(F)(F)F)nc3)C[C@H]2C)n1`: the CL/F – broadly, clearance divided by bioavailability, as obtained after extravascular dosing – in series [5] came to 6.5 mL/min/kg. The values for the bioavailability in series [6] and in series [7] were at least 100% and above 100%, respectively. Besides, the IC50 in series [1] is 128 nM; in series [2], 7000 nM.

Regarding `Cc1ccn(CC(=O)N2CCN(c3sc(C(F)(F)F)nc3-c3cnc(C(F)(F)F)nc3)C[C@@H]2CCO)n1`, the microsomal CLint at 1 µM on CYP2D6 stood at 0.37 µL/min/mg; on CYP3A4, 0.56 µL/min/mg; in [3], 23 µL/min/mg. Further, the results for the half-inhibitory concentration (IC50) in [1] and in [2] were 143 nM and 12000 nM, respectively.

Regarding `C[C@@H]1CN(c2sc(C(F)(F)F)nc2-c2cnc(C(F)(F)F)nc2)CCN1C(=O)Cn1cnc(C(C)(C)C)n1`, the IC50 in [1] stood at 240 nM; in [2] it was 7500 nM.

Turning to `C[C@@H]1CN(c2sc(C(F)(F)F)nc2-c2cnc(C(F)(F)F)nc2)CCN1C(=O)Cn1cnc(CO)n1`, the IC50 in [1] is 510 nM; in series [2], above 60000 nM.

`CCc1ncn(CC(=O)N2CCN(c3sc(C(F)(F)F)nc3-c3cnc(C(F)(F)F)nc3)C[C@H]2CO)n1` came in with a log distribution coefficient (logD) in [4] of 2.6. In addition, in [3], the microsomal CLint at 1 µM is below 10 µL/min/mg. Further, the IC50 in [1] worked out at 208 nM; in [2], 52000 nM.

Consider `CCc1ncn(CC(=O)N2CCN(c3sc(C(F)(F)F)nc3-c3cnc(C(F)(F)F)nc3)C[C@@H]2CCO)n1`, for which the microsomal CLint at 1 µM in series [3] stood at 17 µL/min/mg. The concentration for half-maximal inhibition (IC50) turned out to be 265 nM in series [1] and 27000 nM in series [2].

As to `COCc1ncn(CC(=O)N2CCN(c3sc(C(F)(F)F)nc3-c3cnc(C(F)(F)F)nc3)C[C@H]2C)n1`, the 50% inhibitory concentration (IC50) in [1] turned out to be 440 nM; in series [2] it was 18000 nM.

In the case of `Cc1ncnn1CC(=O)N1CCN(c2sc(C(F)(F)F)nc2-c2cnc(C(F)(F)F)nc2)C[C@H]1C`, the IC50 in series [1] turned out to be 477 nM; in series [2], 16000 nM.

As to `Cc1ccn(CC(=O)N2CCN(c3sc(C(F)(F)F)nc3-c3cnc(C(F)(F)F)nc3)C[C@H]2CCO)n1`, the microsomal CLint at 1 µM in series [3] was found to be 19 µL/min/mg. The results for the IC50 in [1] and in series [2] were 30.2 nM and 5000 nM, respectively.

For `Cc1ncn(CC(=O)N2CCN(c3sc(C(F)(F)F)nc3-c3cnc(C(F)(F)F)nc3)C[C@@H]2CO)n1`, the half-inhibitory concentration (IC50) in series [1] was 273 nM; in [2] it was above 60000 nM.

On to `CC(C)c1ncn(CC(=O)N2CCN(c3sc(C(F)(F)F)nc3-c3cnc(C(F)(F)F)nc3)C[C@H]2CO)n1`, for which the microsomal CLint at 1 µM was 0.13 µL/min/mg on CYP2D6, 1.2 µL/min/mg at CYP3A4 and 33 µL/min/mg in series [3]. Also, the IC50 in [1] stood at 225 nM; in series [2], 29000 nM.

Take `CCc1nc(C)n(CC(=O)N2CCN(c3sc(C(F)(F)F)nc3-c3cnc(C(F)(F)F)nc3)C[C@H]2C)n1`: the results for the IC50 in [1] and in series [2] were 483 nM and 8700 nM, respectively.

As for `CCc1ncnn1CC(=O)N1CCN(c2sc(C(F)(F)F)nc2-c2cnc(C(F)(F)F)nc2)C[C@H]1C`, in series [4], the log distribution coefficient (logD) was 2.8. Further, the half-inhibitory concentration (IC50) in [1] was 1190 nM; in series [2], 13000 nM.

Regarding `C[C@@H]1CN(c2sc(C(F)(F)F)nc2-c2cnc(C(F)(F)F)nc2)CCN1C(=O)Cn1cnc(C#N)n1`, the IC50 in series [1] was found to be 1320 nM; in series [2], 2600 nM.

Turning to `CCc1nncn1CC(=O)N1CCN(c2sc(C(F)(F)F)nc2-c2cnc(C(F)(F)F)nc2)C[C@H]1C`, in series [4], the logD was 2.3. Moreover, the values for the IC50 in [1] and in series [2] were 1190 nM and above 60000 nM, respectively.

In the case of `CCc1ncn(CC(=O)N2CCN(c3sc(C(F)(F)F)nc3-c3cnc(C(F)(F)F)nc3)C[C@H]2C)n1`, the half-maximal inhibitory concentration (IC50) in series [1] is 117 nM; in series [2] it was 12000 nM.

Consider `Cc1ncn(CC(=O)N2CCN(c3sc(C(F)(F)F)nc3-c3cnc(C(F)(F)F)nc3)C[C@@H]2CCO)n1`, for which, in series [3], the microsomal CLint at 1 µM is below 10 µL/min/mg. The concentration for half-maximal inhibition (IC50) was 643 nM in series [1] and above 60000 nM in series [2].

Consider `CCc1ccn(CC(=O)N2CCN(c3sc(C(F)(F)F)nc3-c3cnc(C(F)(F)F)nc3)C[C@H]2CO)n1`, for which the microsomal CLint at 1 µM in series [3] was 81 µL/min/mg. In addition, the IC50 in series [1] stood at 33.7 nM; in [2] it was 8600 nM.

In the case of `Cc1ccn(CC(=O)N2CCN(c3sc(C(F)(F)F)nc3-c3cnc(C(F)(F)F)nc3)C[C@H]2CO)n1`, the microsomal CLint at 1 µM is 0.41 µL/min/mg at CYP2D6, 0.72 µL/min/mg on CYP3A4 and below 10 µL/min/mg in series [3]. Moreover, the concentration for half-maximal inhibition (IC50) was found to be 53.2 nM in series [1] and 13000 nM in [2].

For the origin of these results see ChEMBL document CHEMBL5247653, “Discovery of Clinical Candidate ACT-777991, a Potent CXCR3 Antagonist for Antigen-Driven and Inflammatory Pathologies” (J Med Chem, 2023).
